Several values for one entry are separate records, joined by “and”; a condition that tells them apart may be missing. Identical values can stand only once.
Key:
Test in all cases: Greenhouse post-emergence weed control, visual score 0-100 percent
Format in all cases: in vivo
[1] = test system: Sinapis arvensis L. (wild mustard, SINAR)
Source text: (§1) Results in Examples are greenhouse trial results.
(§2) Seeds or nutlets of the desired test plant species were planted in a soil matrix prepared by mixing a loam or sandy loam soil (e.g., 28.6 percent silt, 18.8 percent clay, and 52.6 percent sand, with a pH of about 5.8 and an organic matter content of about 1.8 percent) and calcareous grit in an 80 to 20 ratio. The soil matrix was contained in plastic pots with a volume of 1 quart and a surface area of 83.6 cm2. When required to ensure good germination and healthy plants, a fungicide treatment and/or other chemical or physical treatment was applied. The plants were grown for 8-22 days in a greenhouse with an approximate 14 h photoperiod which was maintained at about 29° C. during the day and 26° C. during the night. Nutrients (Peters Excel® 15-5-15 5-Ca 2-Mg and iron chelate) were applied in the irrigation solution as needed and water was added on a regular basis. Supplemental lighting was provided with overhead metal halide 1000-Watt lamps as necessary. The plants were employed for testing when they reached the first through fourth true leaf stage.
(§3) Treatments comprised of the acid or esters of halauxifen-methyl (methyl 4-amino-3-chloro-6-(4-chloro-2-fluoro-3-methoxyphenyl)picolinate), each formulated as an SC (suspension concentrate), and various herbicidal components alone and in combination. A form of the compound of Formula I were applied on an acid equivalent basis.
(§4) Treatment requirements were calculated based upon the rates being tested, the concentration of active ingredient or acid equivalent in the formulation, and a 12 mL application volume at a rate of 187 L/ha.
(§5) For treatments comprised of formulated and technical compounds, weighed amounts of the technical materials were placed individually in 25 mL glass vials and dissolved in a volume of 97:3 v/v acetone/DMSO to obtain 12× stock solutions, and measured amounts of the formulated compounds were placed individually in 25 mL glass vials and diluted in a volume of 1.5% (v/v) crop oil concentrate or water to obtain 12× stock solutions. […] As required, additional water and/or 97:3 v/v acetone/DMSO was added to individual application solutions so that the final acetone and DMSO concentrations of the application solutions being compared were 8.1% and 0.25%, respectively.
(§6) All stock solutions and applications solutions were visually inspected for compound compatibility prior to application. Spray solutions were applied to the plant material with an overhead Mandel track sprayer equipped with an 8002E nozzle calibrated to deliver 187 L/ha over an application area of 0.503 m2 at a spray height of 18 to 20 inches (46 to 50 cm) above average plant canopy height. Control plants were sprayed in the same manner with the solvent blank.
(§7) The treated plants and control plants were placed in a greenhouse as described above and watered by sub-irrigation to prevent wash-off of the test compounds. After approximately […], the condition of the test plants as compared with that of the untreated plants was determined visually and scored on a scale of 0 to 100 percent where 0 corresponds to no injury or growth inhibition and 100 corresponds to complete kill.

[2] = test system: Amaranthus rudis Sauer, (common waterhemp, AMATA); details: 7 DAA
Source text: as §1, §2, §3, §4, §5, §6, §7

[3] = test system: Polygonum convolvulus L. (wild buckwheat, POLCO)
Source text: as §1, §2, §3, §4, §5, §6, §7

[4] = test system: Abutilon theophrasti Medik. (velvetleaf, ABUTH)
Source text: as §1, §2, §3, §4, §5, §6, §7

[5] = test system: Chenopodium album L. (common lambsquarters, CHEAL)
Source text: as §1, §2, §3, §4, §5, §6
The treated plants and control plants were placed in a greenhouse as described above and watered by sub-irrigation to prevent wash-off of the test compounds. […], the condition of the test plants as compared with that of the untreated plants was determined visually and scored on a scale of 0 to 100 percent where 0 corresponds to no injury or growth inhibition and 100 corresponds to complete kill.

CCCCCCC(C)OC(=O)COc1nc(F)c(Cl)c(N)c1Cl (stereo not drawn) [Chemical 3, 1-methytheptyl 2-[(4-amino-3,5-dichloro-6-fluoro-2-pyridinyl)oxy]acetate]
Chemical 3 Mean % Weed Control ([1]; 14 DAA, alone at 35 gae/ha): 63.75% | Chemical 3 Mean % Weed Control ([1]; 21 DAA, alone at 17.5 gae/ha): 54.25% | Chemical 3 Mean % Weed Control ([2]; alone at 8.8 gae/ha): 0% | Chemical 3 Mean % Weed Control ([2]; alone at 17.5 gae/ha): 3.75% | Chemical 3 Mean % Weed Control ([2]; alone at 35 gae/ha): 3.75% | Chemical 3 Mean % Weed Control ([3]; 7 DAA, alone at 8.6 gae/ha): 52.5% | Chemical 3 Mean % Weed Control ([3]; 7 DAA, alone at 8.8 gae/ha): 52.5% | Chemical 3 Mean % Weed Control ([3]; 7 DAA, alone at 17.5 gae/ha): 47.5% | Chemical 3 Mean % Weed Control ([3]; 14 DAA, alone at 8.8 gae/ha): 12.5% | Chemical 3 Mean % Weed Control ([3]; 14 DAA, alone at 17.5 gae/ha): 62.25% | Chemical 3 Mean % Weed Control ([3]; 21 DAA, alone at 8.8 gae/ha): 0% | Chemical 3 Mean % Weed Control ([4]; 7 DAA, alone at 8.8 gae/ha): 15% | Chemical 3 Mean % Weed Control ([4]; 7 DAA, alone at 17.5 gae/ha): 28.75% | Chemical 3 Mean % Weed Control ([4]; 7 DAA, alone at 35 gae/ha): 67.5% | Chemical 3 Mean % Weed Control ([4]; 7 DAA, alone at 70 gae/ha): 75.5% | Chemical 3 Mean % Weed Control ([4]; 14 DAA, alone at 8.8 gae/ha): 2.5% | Chemical 3 Mean % Weed Control ([4]; 14 DAA, alone at 17.5 gae/ha): 20% | Chemical 3 Mean % Weed Control ([4]; 14 DAA, alone at 35 gae/ha): 67% | Chemical 3 Mean % Weed Control ([4]; 14 DAA, alone at 70 gae/ha): 70% | Chemical 3 Mean % Weed Control ([5]; 7 DAA, alone at 8.8 gae/ha): 0% | Chemical 3 Mean % Weed Control ([5]; 7 DAA, alone at 17.S gae/ha): 0% | Chemical 3 Mean % Weed Control ([5]; 7 DAA, alone at 17.5 gae/ha): 0% | Chemical 3 Mean % Weed Control ([5]; 7 DAA, alone at 35 gae/ha): 0% | Chemical 3 Mean % Weed Control ([5]; 7 DAA, alone at 70 gae/ha): 10% | Chemical 3 Mean % Weed Control ([5]; 14 DAA, alone at 8.8 gae/ha): 0% | Chemical 3 Mean % Weed Control ([5]; 14 DAA, alone at 17.5 gae/ha): 10% and 5% | Chemical 3 Mean % Weed Control ([5]; 14 DAA, alone at 35 gae/ha): 5% and 3.75% and 1.75% | Chemical 3 Mean % Weed Control ([5]; 14 DAA, alone at 70 gae/ha): 31.25% and 35% | Chemical 3 Mean % Weed Control ([5]; 17 DAA, alone at 8.8 gae/ha): 0% | Chemical 3 Mean % Weed Control ([5]; 17 DAA, alone at 17.5 gae/ha): 8.75% | Chemical 3 Mean % Weed Control ([5]; 17 DAA, alone at 35 gae/ha): 3.75% | Chemical 3 Mean % Weed Control ([5]; 17 DAA, alone at 70 gae/ha): 38.75%

COC(=O)c1nc(-c2ccc(Cl)c(OC)c2F)cc(N)c1Cl [Chemical 1, methyl 4-amino-3-chloro-6-(4-chloro-2-fluoro-3-methoxyphenyl)picolinate]
Chemical 1 Mean % Weed Control ([1]; 14 DAA, alone at 4 gae/ha): 0% | Chemical 1 Mean % Weed Control ([1]; 21 DAA, alone at 1 gae/ha): 1.25% | Chemical 1 Mean % Weed Control ([2]; alone at 2 gae/ha): 70.5% | Chemical 1 Mean % Weed Control ([2]; alone at 4 gae/ha): 73% | Chemical 1 Mean % Weed Control ([3]; 7 DAA, alone at 1 gae/ha): 2.5% | Chemical 1 Mean % Weed Control ([3]; 7 DAA, alone at 2 gae/ha): 11.25% | Chemical 1 Mean % Weed Control ([3]; 7 DAA, alone at 4 gae/ha): 28.75% | Chemical 1 Mean % Weed Control ([3]; 14 DAA, alone at 2 gae/ha): 0% | Chemical 1 Mean % Weed Control ([3]; 14 DAA, alone at 4 gae/ha): 20% | Chemical 1 Mean % Weed Control ([3]; 21 DAA, alone at 1 gae/ha): 0% | Chemical 1 Mean % Weed Control ([3]; 21 DAA, alone at 2 gae/ha): 6.25% | Chemical 1 Mean % Weed Control ([3]; 21 DAA, alone at 4 gae/ha): 17.5% | Chemical 1 Mean % Weed Control ([4]; 7 DAA, alone at 1 gae/ha): 81.25% | Chemical 1 Mean % Weed Control ([4]; 7 DAA, alone at 2 gae/ha): 81.25% | Chemical 1 Mean % Weed Control ([4]; 7 DAA, alone at 4 gae/ha): 84.5% | Chemical 1 Mean % Weed Control ([4]; 14 DAA, alone at 2 gae/ha): 87.25% | Chemical 1 Mean % Weed Control ([5]; 7 DAA, alone at 1 gae/ha): 28.75% | Chemical 1 Mean % Weed Control ([5]; 7 DAA, alone at 2 gae/ha): 56.25% | Chemical 1 Mean % Weed Control ([5]; 7 DAA, alone at 4 gae/ha): 56.25% | Chemical 1 Mean % Weed Control ([5]; 14 DAA, alone at 1 gae/ha): 33.33% and 40% | Chemical 1 Mean % Weed Control ([5]; 14 DAA, alone at 2 gae/ha): 60% | Chemical 1 Mean % Weed Control ([5]; 14 DAA, alone at 4 gae/ha): 62.5% and 63.33% | Chemical 1 Mean % Weed Control ([5]; 17 DAA, alone at 1 gae/ha): 40% | Chemical 1 Mean % Weed Control ([5]; 17 DAA, alone at 2 gae/ha): 53.75% | Chemical 1 Mean % Weed Control ([5]; 17 DAA, alone at 4 gae/ha): 62.5%
